{
  "source": "patent US5912229A",
  "about": "“Use of a pharmaceutical composition comprising an appetite-suppressing peptide” (Novo Nordisk Als, priority 1996, dated 1999)",
  "key": {"Mice [1]": {"tested_on": "Mice", "assay": "Appetite suppression in mice, infant formula milk (Complan) consumption", "type": "in vivo", "method": "(§1) Mice were deprived of their normal feed for two days and given free access to a 20% sucrose solution on the first day of feed deprivation. After the 2-day feed deprivation period, mice were injected intraperitoneally with 0.5 ml of a solution containing the test substance. Thirty minutes after injection, individual mice were placed in one of eight 15 cm^2 test box with a stainless steel grid floor and a glass drinking tube which projected into the box. The drinking tube was connected to a reservoir containing a 20% sucrose solution, and the interior of the drinking tube contained an electrode enabling the detection of drinking contacts with the solution by measuring the flow of a weak (unnoticeable) electric current through mice by means of an electronic apparatus connected to the drinking tube electrode and the stainless steel grid floor. Consumption of the sucrose solution was measured over a 10 minute period by electronically recording the total amount of contact with the sucrose solution during the test session. The degree of appetite suppression produced by a given test substance was determined by statistical comparison of the duration of sucrose consumption by control (vehicle treated) mice with that of mice treated with a test substance. The degree of appetite suppression in a treated group of mice was expressed as percent of the control groups response.\nThe method is as in Example 5, but instead of 20% sucrose, a solution of infant formula milk (Complan®) is used. The test substance is dissolved in a vehicle consisting of phosphate buffered saline with 1% albumin. Test substances dissolved in vehicle are injected either intravenously (IV) in a volume of 100 microliters, or intra-cerebroventricularly (ICV) in a volume of 10 microliters.\nMice were tested for appetite suppression as described in Example 8 after treatment with a test substance consisting of synthetic human GLP-2."}, "fasted rats": {"tested_on": "fasted rats", "details": "cited from earlier work"}, "Mice [2]": {"tested_on": "Mice", "assay": "Appetite suppression in mice, 20% sucrose solution consumption", "type": "in vivo", "details": "intraperitoneal injection, 50 micrograms", "method": "as §1, with “response. […]” for “response.”"}},
  "note": "Ends that are not written are not given here.",
  "data": [
    {"compound": "CC[C@H](C)[C@H](NC(=O)[C@H](Cc1ccccc1)NC(=O)[C@H](CC(=O)O)NC(=O)[C@H](CCCNC(=N)N)NC(=O)[C@H](C)NC(=O)[C@H](C)NC(=O)[C@H](CC(C)C)NC(=O)[C@H](CC(N)=O)NC(=O)[C@H](CC(=O)O)NC(=O)[C@H](CC(C)C)NC(=O)[C@@H](NC(=O)[C@@H](NC(=O)[C@H](CC(N)=O)NC(=O)[C@H](CCSC)NC(=O)[C@H](CCC(=O)O)NC(=O)[C@H](CC(=O)O)NC(=O)[C@H](CO)NC(=O)[C@H](Cc1ccccc1)NC(=O)[C@H](CO)NC(=O)CNC(=O)[C@H](CC(=O)O)NC(=O)[C@H](C)NC(=O)[C@@H](N)Cc1c[nH]cn1)[C@@H](C)O)[C@@H](C)CC)C(=O)N[C@@H](CC(N)=O)C(=O)N[C@@H](Cc1c[nH]c2ccccc12)C(=O)N[C@@H](CC(C)C)C(=O)N[C@H](C(=O)N[C@@H](CCC(N)=O)C(=O)N[C@H](C(=O)N[C@@H](CCCCN)C(=O)N[C@H](C(=O)N[C@H](C(=O)N[C@@H](CC(=O)O)C(=O)O)[C@@H](C)O)[C@@H](C)CC)[C@@H](C)O)[C@@H](C)CC", "note": "[synthetic human GLP-2, human GLP-2]", "values": [
      {"measurement": "suppression of milk consumption", "setting": "Mice [1]; ICV injection, 3 micrograms", "value": 32, "unit": "%"},
      {"measurement": "suppression of milk consumption", "setting": "Mice [1]; ICV injection, 10 micrograms", "value": 35, "unit": "%"},
      {"measurement": "suppression of milk consumption", "setting": "Mice [1]; IV injection, 3 micrograms", "value": 24, "unit": "%"}
    ]},
    {"compound": "GLP-1", "values": [
      {"measurement": "effect on feeding", "setting": "fasted rats; fasted rats, intracerebroventricular (ICV) administration", "value": "inhibited feeding"},
      {"measurement": "effect on feeding behaviour", "setting": "fasted rats; peripheral administration", "value": "no effect on feeding behaviour"}
    ]},
    {"compound": "Glucagon", "values": [
      {"measurement": "effect on food intake", "setting": "fasted rats; fasted rats, intraperitoneal administration of pharmacological doses", "value": "no effect on food intake"}
    ]},
    {"compound": "HADGSFSDEMNTVLDNLATRDFINWLLHTKITD [synthetic porcine GLP-2, porcine GLP-2]", "values": [
      {"measurement": "suppression of sucrose consumption", "setting": "Mice [2]", "value": 38, "unit": "%"}
    ]}
  ]
}
